Consider eight compounds from ChEMBL document CHEMBL4715688, “Discovery, Optimization, and in Vivo Evaluation of Benzimidazole Derivatives AM-8508 and AM-9635 as Potent and Selective PI3Kδ Inhibitors” (J Med Chem, 2016).

In brackets after ≈: the same amount, converted by molar mass. Some results are limits rather than exact numbers.

Data set [1] is described as follows: Oral bioavailability in male Sprague-Dawley rat at 2 mg/kg. The format is ADME, organism-based. To be noted: in vivo.
Data set [2] is described as follows: Aqueous solubility of the compound in PBS buffer at pH 7.4 incubated for 72 hrs by HPLC analysis. In kind it is physicochemical.
Data set [3] is described as follows: Unbound clearance in male Sprague-Dawley rat at 0.5 mg/kg, iv. The format is ADME, organism-based. To be noted: in vivo.
Data set [4] is described as follows: Clearance in male Sprague-Dawley rat at 0.5 mg/kg, iv. The format is ADME, organism-based. Conditions: in vivo.
Data set [5] can be described thus: Metabolic stability in rat liver microsomes assessed as metabolic turnover at 1 uM measured after 30 mins in presence of NADPH by LC/MS analysis. Conditions: read-out: Drug metabolism. The format is ADME, Microsome.
The nature of data set [6]: Metabolic stability in human liver microsomes assessed as metabolic turnover at 1 uM measured after 30 mins in presence of NADPH by LC/MS analysis. In kind it is ADME, Microsome. Conditions: read-out: Drug metabolism. For orientation: Liver microsomes are vesicles of endoplasmic reticulum, rich in cytochrome P450 enzymes.
A short description of data set [7]: Clearance in male Sprague-Dawley rat at 0.8 mg/kg, iv. The format is ADME, organism-based. Conditions: in vivo.
A short description of data set [8]: Clearance in male Sprague-Dawley rat at […], iv. To be noted: in vivo, dose 0.71 mg/kg. In kind it is ADME, organism-based.
Data set [9] can be described thus: Clearance in male Sprague-Dawley rat at 0.72 mg/kg, iv. The format is ADME, organism-based. Conditions: in vivo.

Take `C[C@H](Nc1ncnc(N)c1C#N)c1nc2ccc(F)cc2n1-c1ccccn1`: the bioavailability in [1] was determined as 58%. The compound also displayed a solubility at 72 h in data set [2] of 500 µM (≈ 187 µg/mL). In addition, in data set [3], the CL free is 73.3 mL/min/kg. In [4], this compound showed a clearance of 16.2 mL/min/kg. Also, the metabolised at 0.5 h, 1 µM in data set [5] and in data set [6] was below 10% in each case.
As for `C[C@H](Nc1ncnc(N)c1C#N)c1nc2ccc(F)cc2n1-c1ccccc1`, the solubility at 72 h in data set [2] was found to be 374 µM (≈ 140 µg/mL). This compound showed a CL free in data set [3] of 447 mL/min/kg. Also, in data set [4], the clearance was 40.2 mL/min/kg. The results for the metabolised at 0.5 h, 1 µM in data set [5] and in [6] were 26% and below 10%, respectively.
Consider `C[C@H](Nc1ncnc(N)c1C#N)c1nc2ccc(F)cc2n1-c1cncc(F)c1`, for which the bioavailability in [1] came out at 41%. Also, in data set [2], the concentration in solution (solubility at 72 h) was 500 µM (≈ 196 µg/mL). The CL free in data set [3] was 51.7 mL/min/kg. Also, the clearance in data set [4] was 16.5 mL/min/kg. The metabolised at 0.5 h, 1 µM in [5] and in [6] was below 10% throughout.
`C[C@H](Nc1ncnc(N)c1C#N)c1nc2ccc(F)cc2n1-c1cc(F)cc(F)c1` registered a solubility at 72 h in data set [2] of 305 µM (≈ 125 µg/mL). In data set [3], this compound gave a CL free of 338 mL/min/kg. In [4], this compound had a clearance of 44 mL/min/kg. For the same compound, the metabolised at 0.5 h, 1 µM in data set [5] is 30%; in data set [6], 11%.
With `C[C@H](Nc1ncnc(N)c1C#N)c1nc2ccc(F)cc2n1-c1cccc(S(C)(=O)=O)c1`, the clearance in data set [7] is 71.7 mL/min/kg. The compound also returned a solubility at 72 h in data set [2] of 500 µM (≈ 226 µg/mL). The compound further displayed a CL free in [3] of 205 mL/min/kg. Further, the metabolised at 0.5 h, 1 µM in data set [5] and in data set [6] was below 10% each time.
In data set [1], `C[C@H](Nc1ncnc(N)c1C#N)c1nc2ccc(F)cc2n1-c1cccnc1` returned a bioavailability of 45%. Besides, the concentration in solution in data set [2] (solubility at 72 h) came to 474 µM (≈ 177 µg/mL). Besides, the clearance in data set [8] was 15.5 mL/min/kg. The CL free in data set [3] worked out at 43.3 mL/min/kg. The metabolised at 0.5 h, 1 µM in [5] and in data set [6] was below 10% throughout.
`C[C@H](Nc1ncnc(N)c1C#N)c1nc2ccc(F)cc2n1-c1ccc(F)cc1` yielded a solubility at 72 h in data set [2] of 353 µM (≈ 138 µg/mL). This compound came in with a CL free in data set [3] of 300 mL/min/kg. Further, the clearance in [4] is 29.7 mL/min/kg. The results for the metabolised at 0.5 h, 1 µM in data set [5] and in [6] were 22% and below 10%, respectively.
For the compound `C[C@H](Nc1ncnc(N)c1C#N)c1nc2ccc(F)cc2n1-c1cccc(F)c1`, in data set [9], the clearance was 46 mL/min/kg. Besides, the concentration in solution in data set [2] (solubility at 72 h) was 401 µM (≈ 157 µg/mL). In data set [3], this compound displayed a CL free of 460 mL/min/kg. Moreover, the metabolised at 0.5 h, 1 µM in data set [5] was found to be 28%; in data set [6], 15%.

What is called bioavailability is dose-corrected exposure relative to a reference, in per cent. Usually solubility stands for the concentration that dissolves in the medium under given conditions. Usually clearance stands for the rate of elimination divided by the concentration. A higher clearance goes with a high capacity for elimination.
